Results: patent US20110039762A1, “TARGETED ANTIMICROBIAL MOIETIES” (C3 JIAN, INC., priority 2009, published 2011)
“Also recorded” adds a separate entry of the source.

These substances were tested on microorganisms (e.g., bacteria, yeasts, fungi) (assay: Targeting peptide binding to target microorganisms (Table 3)). Conditions: microorganism the targeting peptide binds; binding in aqueous buffers varied by peptide solubility, preferably 1x PBS.

Substance	Target(s)
1T-3 (VLGIAGGLDAYGELVGGN; Peptide with targeting and/or antimicrobial activity) [Peptide 1T-3]	S. mutans; also recorded: S. gordonii
1T-4 (LDAYGELVGGN; Peptide with targeting and/or antimicrobial activity) [Peptide 1T-4]	S. gordonii; also recorded: S. sanguinis; also recorded: S. oralis; also recorded: V. atypica; also recorded: L. casei; also recorded: S. mutans
1T-6 (KFINGVLSQFVLERK; Peptide with targeting and/or antimicrobial activity) [Peptide 1T-6]	S. mutans
1T-7 (SQRIIEPVKSPQPYPGFSVS; Peptide with targeting and/or antimicrobial activity) [Peptide 1T-7]	M. xanthus
1T-8 (FSVAACGEQRAVTFVLLIEDLI; Peptide with targeting and/or antimicrobial activity) [Peptide 1T-8]	M. xanthus
1T-9 (WAWAESPRCVSTRSNIHALAFRVEVAALT; Peptide with targeting and/or antimicrobial activity) [Peptide 1T-9]	M. xanthus
1T-10 (SPAGLPGDGDEA; Peptide with targeting and/or antimicrobial activity) [Peptide 1T-10]	M. xanthus
1T-11 (RISE; Peptide with targeting and/or antimicrobial activity) [Peptide 1T-11]	S. mutans; also recorded: S. epidermidis; also recorded: P. aeruginosa
1T-12 (FGNIFKGLKDVIETIVKWTAAK; Peptide with targeting and/or antimicrobial activity) [Peptide 1T-12]	C. xerosis; also recorded: C. striatum; also recorded: S. epidermidis; also recorded: S. mutans
1T-13 (FRSPCINNNSLQPPGVYPAR; Peptide with targeting and/or antimicrobial activity) [Peptide 1T-13]	S. aureus; also recorded: S. epidermidis; also recorded: P. aeruginosa
1T-14 (ALAGLAGLISGK; Peptide with targeting and/or antimicrobial activity) [Peptide 1T-14]	S. mutans; also recorded: S. aureus; also recorded: S. epidermidis; also recorded: C. xerosis
1T-15 (DVILRVEAQ; Peptide with targeting and/or antimicrobial activity) [Peptide 1T-15]	S. mutans
1T-16 (IDMR; Peptide with targeting and/or antimicrobial activity) [Peptide 1T-16]	P. aeruginosa
1T-17 (NNAIVYIS; Peptide with targeting and/or antimicrobial activity) [Peptide 1T-17]	S. mutans
1T-18 (YSKTLHFAD; Peptide with targeting and/or antimicrobial activity) [Peptide 1T-18]	S. aureus; also recorded: S. epidermidis; also recorded: C. striatum; also recorded: P. aeruginosa
1T-19 (PGAFRNPQMPRG; Peptide with targeting and/or antimicrobial activity) [Peptide 1T-19]	S. aureus; also recorded: S. epidermidis; also recorded: P. aeruginosa
1T-20 (PALVDLSNKEAVWAVLDDHS; Peptide with targeting and/or antimicrobial activity) [Peptide 1T-20]	S. mutans; also recorded: P. aeruginosa
1T-21 (YVEEAVRAALKKEARISTEDTPVNLPSFDC; Peptide with targeting and/or antimicrobial activity) [Peptide 1T-21]	S. mutans; also recorded: P. aeruginosa
1T-22 (VPLDDGTRRPEVARNRDKDRED; Peptide with targeting and/or antimicrobial activity) [Peptide 1T-22]	S. epidermidis; also recorded: P. aeruginosa
1T-23 (PALVDLSNKEAVWAVLDDHS; Peptide with targeting and/or antimicrobial activity) [Peptide 1T-23]	S. mutans; also recorded: P. aeruginosa
1T-24 (EEAEEKLAEVSQAVKRLVR; Peptide with targeting and/or antimicrobial activity) [Peptide 1T-24]	P. aeruginosa

Substance	Target(s)
1T-25 (VGLDVSVLVLFFGLQLLSVLLGAMIR; Peptide with targeting and/or antimicrobial activity) [Peptide 1T-25]	S. aureus; also recorded: S. epidermidis; also recorded: C. xerosis; also recorded: C. striatum; also recorded: P. aeruginosa
1T-26 (LTILPTTFFAIIVPILAVAFIAYSGFKIKGIVEHKDQW; Peptide with targeting and/or antimicrobial activity) [Peptide 1T-26]	S. mutans; also recorded: S. aureus; also recorded: S. epidermidis; also recorded: C. jeikeium; also recorded: C. xerosis; also recorded: C. striatum; also recorded: P. aeruginosa
1T-27 (ALFVSLEQFLVVVAKSVFALCHSGTLS; Peptide with targeting and/or antimicrobial activity) [Peptide 1T-27]	S. mutans; also recorded: S. aureus; also recorded: S. epidermidis; also recorded: C. jeikeium; also recorded: C. xerosis; also recorded: C. striatum; also recorded: P. aeruginosa
1T-28 (VSRDEAMEFIDREWTTLQPAGKSHA; Peptide with targeting and/or antimicrobial activity) [Peptide 1T-28]	P. aeruginosa
1T-29 (GSVIKKRRKRMSKKKHRKMLRRTRVQRRKLGK; Peptide with targeting and/or antimicrobial activity) [Peptide 1T-29]	S. epidermidis; also recorded: C. jeikeium; also recorded: C. xerosis; also recorded: C. striatum; also recorded: P. aeruginosa; also recorded: S. mutans; also recorded: S. aureus
1T-30 (GKAKPYQVRQVLRAVDKLETRRKKGGR; Peptide with targeting and/or antimicrobial activity) [Peptide 1T-30]	S. aureus; also recorded: S. epidermidis; also recorded: C. xerosis; also recorded: C. striatum; also recorded: P. aeruginosa
1T-31 (NATGTDIGEVTLTLGRFS; Peptide with targeting and/or antimicrobial activity) [Peptide 1T-31]	S. mutans; also recorded: P. aeruginosa
1T-32 (VSFLAGWLCLGLAAWRLGNA; Peptide with targeting and/or antimicrobial activity) [Peptide 1T-32]	S. mutans
1T-33 (VRTLTILVIFIFNYLKSISYKLKQPFENNLAQSMISI; Peptide with targeting and/or antimicrobial activity) [Peptide 1T-33]	S. aureus; also recorded: S. epidermidis; also recorded: C. jeikeium; also recorded: C. xerosis; also recorded: C. striatum; also recorded: P. aeruginosa
1T-34 (AFWLNILLTLLGYIPGIVHAVYIIAKR; Peptide with targeting and/or antimicrobial activity) [Peptide 1T-34]	S. aureus; also recorded: S. epidermidis; also recorded: C. jeikeium; also recorded: C. xerosis; also recorded: C. striatum; also recorded: P. aeruginosa
1T-35 (EICLTLVFPIRGSYSEAAKFPVPIHIVEDGTVELPK; Peptide with targeting and/or antimicrobial activity) [Peptide 1T-35]	P. aeruginosa
1T-36 (VYRHLRFIDGKLVEIRLERK; Peptide with targeting and/or antimicrobial activity) [Peptide 1T-36]	S. aureus; also recorded: S. epidermidis; also recorded: C. jeikeium; also recorded: C. xerosis; also recorded: C. striatum; also recorded: P. aeruginosa
1T-37 (YIVGALVILAVAGLIYSMLRKA; Peptide with targeting and/or antimicrobial activity) [Peptide 1T-37]	S. mutans; also recorded: S. aereus; also recorded: S. epidermidis; also recorded: C. jeikeium; also recorded: C. xerosis; also recorded: C. striatum; also recorded: P. aeruginosa
1T-38 (VMFVLTRGRSPRPMIPAY; Peptide with targeting and/or antimicrobial activity) [Peptide 1T-38]	S. mutans; also recorded: S. aereus; also recorded: S. epidermidis; also recorded: C. jeikeium; also recorded: C. xerosis; also recorded: C. striatum; also recorded: P. aeruginosa
1T-39 (FGFCVWMYQLLAGPPGPPA; Peptide with targeting and/or antimicrobial activity) [Peptide 1T-39]	S. mutans; also recorded: P. aeruginosa
1T-40 (QRVSLWSEVEHEFR; Peptide with targeting and/or antimicrobial activity) [Peptide 1T-40]	S. mutans; also recorded: P. aeruginosa
1T-41 (KRGSKIVIAIAVVLIVLAGVWVW; Peptide with targeting and/or antimicrobial activity) [Peptide 1T-41]	S. mutans; also recorded: S. aureus; also recorded: S. epidermidis; also recorded: C. jeikeium; also recorded: C. striatum; also recorded: P. aeruginosa
1T-42 (TVLDWLSLALATGLFVYLLVALLRADRA; Peptide with targeting and/or antimicrobial activity) [Peptide 1T-42]	S. aureus; also recorded: S. epidermidis; also recorded: C. xerosis; also recorded: C. striatum; also recorded: P. aeruginosa
1T-43 (DRCLSVLSWSPPKVSPLI; Peptide with targeting and/or antimicrobial activity) [Peptide 1T-43]	C. jeikium; also recorded: P. aeruginosa
1T-44 (DPALADFAAGMRAQVRT; Peptide with targeting and/or antimicrobial activity) [Peptide 1T-44]	S. mutans; also recorded: S. aureus; also recorded: S. epidermidis; also recorded: C. jeikeium; also recorded: C. striatum; also recorded: P. aeruginosa
1T-45 (WTKPSFTDLRLGFEVTLYFANR; Peptide with targeting and/or antimicrobial activity) [Peptide 1T-45]	S. aureus; also recorded: S. epidermidis; also recorded: C. striatum; also recorded: P. aeruginosa
